Experimental data taken from article PMC7144358, “Determination of KD025 (SLx-2119), a Selective ROCK2 Inhibitor, in Rat Plasma by High-Performance Liquid Chromatography-Tandem Mass Spectrometry and Its Pharmacokinetic Application” (Molecules, 2020).
Like-named read-outs stand apart in the source and are kept apart here.

What was measured:
[1] = Pharmacokinetic study after single oral and IV administration of KD025 to rats; type: in vivo, Sprague–Dawley rats; conditions: rat
Procedure: The feasibility of the developed LC/MS–MS method was examined by performing pharmacokinetic studies of KD025 in rats. Animal experiments were performed in accordance with the guide for the care and use of laboratory animals issued by the National Institutes of Health, as described previously. All experimental protocols were approved by the Animal Care and Use Committee of Gachon University (No. GIACUC-R2018014, approved on June 20th, 2018). Sprague–Dawley rats (8–9 weeks, 250–300 g, Nara Biotech, South Korea) were provided free access to food and water and maintained under 12 h light/dark cycles to adjust to the laboratory environment for a week before commencing the study. Rats were anesthetized by intramuscular injections (20 mg/kg) of Zoletil® (Vibrac, TX, USA) and cannulated by surgery to the femoral artery with polyethylene tubing (Clay Adams, NJ, USA) filled with heparinized saline (20 IU/mL) for blood sampling. After the rats had recovered from surgery, KD025 in a vehicle mixture (DMSO:Cremophor EL:PEG400:DDW = 5:10:40:50) was administered to rats at a dose of 5 mg/kg and 2 mg/kg for oral and IV administration, respectively. Blood samples (220 μL) were collected at 0 (blank), 1 (IV only), 5, 15, 30, 60, 120, 180, 240, 360, 480 and 1440 (oral only) min after KD025 administration and equal volumes of saline were injected for compensation of fluid loss. Plasma was separated from other components of blood by centrifugation at 14,000 rpm for 15 min at 4 °C and then was stored at −20 °C until analysis.
For sample preparation, 100 μL of IS in acetonitrile solution (250 ng/mL) was added to 50 μL of plasma samples, followed by vortex-mixing in 1 min for deproteinization. Samples were then centrifuged at 14,000 rpm for 15 min at 4 °C, and 100 μL aliquots of the supernatant were collected for analysis, as described in Section 3.2. The plasma peak concentration (Cmax) and time to reach Cmax (Tmax) were directly determined from each individual plasma concentration–time profile. Other pharmacokinetic parameters were calculated using WinNonlin® 3.1 software (Pharsight, Cary, NC, USA) by a non-compartmental method, as described previously. Results are presented as means ± standard deviations.

[2] = Stability of KD025 in rat plasma under storage/handling conditions; type: in vitro ADME; conditions: for Stability (%), auto-sampler stability (24 h at 4 °C): processed rat plasma sample; for Stability (%), auto-sampler stability (24 h at 4 °C) / Stability (%), freeze-thaw stability (3 cycles) / Stability (%), long-term stability (4 weeks at −20 °C) / Stability (%), short-term stability (4 h at room temperature): n = 3
Procedure: (§1) The stability of stock solutions of KD025 and IS was assessed by comparing the peak response of freshly prepared methanol/acetonitrile solution with that of the solution stored at room temperature for 4 hours or at −20 °C for 4 weeks of KD025 (200 ng/mL) and IS (250 ng/mL). The stability of QC samples in rat plasma at low, middle, high, and ultra-high concentrations was investigated in terms of short- and long-term stability, post-preparative stability, and freeze-thaw stability. Short-term stability was assessed by holding QC samples at the laboratory condition (room temperature) for 4 h, while QC samples were stored at −20 °C for 4 weeks to evaluate long-term stability. The post-preparative stability of processed samples stored in an autosampler (4 °C) was evaluated after 24 hours. Freeze-thaw stability was tested over three repeated cycles, in which QC samples were frozen at −20 °C and then thawed at room temperature. Peak area ratio changes of < 15% between stored and freshly prepared samples were considered as the criteria for the stability of samples [41].

[3] = Stability of stock solutions; type: physicochemical; conditions: KD025 200 ng/mL, IS 250 ng/mL; for Stock solution stability, concentration as % of fresh samples: room temperature for 4 h; for Stock solution stability: −20 °C for 4 weeks
Procedure: as §1

ROCK2 = system: ROCK2; design: method as in PMID 26486225, PMID 21242007; conditions: cited from earlier work
[4] = design: method as in PMID 28389592; conditions: 38 patients with psoriasis, oral administration, phase 2; cited from earlier work
[5] = design: method as in doi:10.1016/j.bbmt.2018.12.100, doi:10.1182/blood-2019-125986, doi:10.1097/01.HS9.0000564392.13730.a3; conditions: 54 patients, phase 2a; cited from earlier work
[6] = human, in vivo, po; cited from earlier work
[7] = Sprague-Dawley, plasma, IV 2 mg/kg, n = 5
[8] = Sprague-Dawley, plasma, PO 5 mg/kg, n = 5
[9] = rat plasma, UHQC 8000 ng/mL diluted 10 times to 800 ng/mL

SMILES: CC(C)NC(=O)COc1cccc(-c2nc(Nc3ccc4[nH]ncc4c3)c3ccccc3n2)c1 [KD025, 2-(3-(4-((1H-Indazol-5-yl)amino)quinazolin-2-yl)phenoxy)-N-isopropylacetamide]
- AUC(0-t) [1, 7]: 872 ng·h/mL
- MRT [1, 7]: 0.773 h
- clearance [1, 7]: 38.9 ± 6.2 mL/min/kg
- half-life [1, 7]: 1.47 ± 0.332 h
- Cmax ([1]; Sprague-Dawley, plasma, IV 2 mg/kg, n = 5, C0 estimated by noncompartmental analysis, read-out: Cmax (C0)): 4420 ± 1210 ng/mL
- Vd ([1]; Sprague-Dawley, plasma, IV 2 mg/kg, n = 5, read-out: Vss): 1.78 ± 0.287 L/kg
- AUC(0-t) [1, 8]: 763 ng·h/mL
- MRT [1, 8]: 7.91 h
- half-life [1, 8]: 5.89 ± 2.82 h
- Tmax ([1]; Sprague-Dawley, plasma, PO 5 mg/kg, n = 5, mean ± SD): 2.2 h
- Cmax ([1]; Sprague-Dawley, plasma, PO 5 mg/kg, n = 5, mean ± SD, read-out: Cmax): 128 ± 74.7 ng/mL
- AUC(0-inf) ([1]; Sprague-Dawley, plasma, iv, 2 mg/kg, IV 2 mg/kg, n = 5): 812 ng·h/mL
- bioavailability ([1]; Sprague-Dawley, plasma, oral, PO 5 mg/kg vs IV 2 mg/kg, AUC∞PO/AUC∞IV × 100): ~37%
- AUC(0-inf) ([1]; Sprague-Dawley, plasma, po, 5 mg/kg, PO 5 mg/kg, n = 5): 877 ng·h/mL
- AUClast to AUC∞ ratio ([1]; IV 2 mg/kg): 99.2%
- AUC∞ /Dose ([1]; IV 2 mg/kg, n = 5): 26.3 ± 5.0 μg∙min/mL/[mg/kg]
- AUC∞ ([1]; IV 2 mg/kg, n = 5, 2 mg/kg): 52.7 ± 10.0 µg·min/mL
- AUC∞ /Dose ([1]; PO 5 mg/kg, n = 5): 9.7 ± 2.4 μg∙min/mL/[mg/kg]
- AUC∞ ([1]; PO 5 mg/kg, n = 5, 5 mg/kg): 48.7 ± 11.8 µg·min/mL
- AUClast to AUC∞ ratio ([1]; oral 5 mg/kg): 94.0%
- Stability (%), auto-sampler stability (24 h at 4 °C) ([2]; 1 ng/mL): 112.1 ± 2.0%
- Stability (%), auto-sampler stability (24 h at 4 °C) ([2]; 3 ng/mL): 100.2 ± 0.2%
- Stability (%), auto-sampler stability (24 h at 4 °C) ([2]; 40 ng/mL): 102.0 ± 1.3%
- Stability (%), auto-sampler stability (24 h at 4 °C) ([2]; 400 ng/mL): 98.1 ± 2.1%
- Stability (%), auto-sampler stability (24 h at 4 °C) ([2]; 800 ng/mL): 101.1 ± 0.8%
- Stability (%), auto-sampler stability (24 h at 4 °C) ([2]; UHQC 8000 ng/mL diluted 10 times to 800 ng/mL): 103.3 ± 3.2%
- Short-term stability, peak area ratio vs freshly prepared samples ([2]; rat plasma at room temperature (4 h), range over QC and UHQC concentrations): 92.8–100.5%
- Long-term stability, peak area ratio vs freshly prepared samples ([2]; rat plasma at −20 °C (4 weeks), range over QC and UHQC concentrations): 95.8–109.9%
- Stability (%), freeze-thaw stability (3 cycles) ([2]; rat plasma, 1 ng/mL): 114.1 ± 1.5%
- Stability (%), long-term stability (4 weeks at −20 °C) ([2]; rat plasma, 1 ng/mL): 95.8 ± 3.7%
- Stability (%), short-term stability (4 h at room temperature) ([2]; rat plasma, 1 ng/mL): 92.8 ± 5.0%
- Stability (%), freeze-thaw stability (3 cycles) ([2]; rat plasma, 3 ng/mL): 108.7 ± 3.4%
- Stability (%), long-term stability (4 weeks at −20 °C) ([2]; rat plasma, 3 ng/mL): 104.9 ± 6.0%
- Stability (%), short-term stability (4 h at room temperature) ([2]; rat plasma, 3 ng/mL): 93.0 ± 1.3%
- Stability (%), freeze-thaw stability (3 cycles) ([2]; rat plasma, 40 ng/mL): 110.1 ± 6.5%
- Stability (%), long-term stability (4 weeks at −20 °C) ([2]; rat plasma, 40 ng/mL): 106.3 ± 3.0%
- Stability (%), short-term stability (4 h at room temperature) ([2]; rat plasma, 40 ng/mL): 94.0 ± 1.6%
- Stability (%), freeze-thaw stability (3 cycles) ([2]; rat plasma, 400 ng/mL): 103.3 ± 3.3%
- Stability (%), long-term stability (4 weeks at −20 °C) ([2]; rat plasma, 400 ng/mL): 109.9 ± 2.2%
- Stability (%), short-term stability (4 h at room temperature) ([2]; rat plasma, 400 ng/mL): 99.0 ± 0.6%
- Stability (%), freeze-thaw stability (3 cycles) ([2]; rat plasma, 800 ng/mL): 109.3 ± 5.3%
- Stability (%), long-term stability (4 weeks at −20 °C) ([2]; rat plasma, 800 ng/mL): 106.4 ± 1.1%
- Stability (%), short-term stability (4 h at room temperature) ([2]; rat plasma, 800 ng/mL): 93.6 ± 1.8%
- Stability (%), freeze-thaw stability (3 cycles) [2, 9]: 114.3 ± 2.2%
- Stability (%), long-term stability (4 weeks at −20 °C) [2, 9]: 98.6 ± 0.5%
- Stability (%), short-term stability (4 h at room temperature) [2, 9]: 100.5 ± 2.5%
- Peak area ratio vs fresh samples after three freeze-thaw cycles ([2]; rat plasma, range over five QC and UHQC concentrations): 103.3–114.3%
- Post-preparative stability, peak area ratio ([2]; samples stored in autosampler at 4 °C (24 h), range over QC and UHQC concentrations): 98.1–112.1%
- Stock solution stability, concentration as % of fresh samples [3]: 89.6%
- Stock solution stability [3]: 95.4%
- Selectivity for ROCK2 than ROCK1 (ROCK2): 100 fold
- Clinical effect in psoriasis [4]: reduced psoriasis area, normalized skin pathology, and down-regulated serum IL-17 and IL-23 cytokines
- Tolerability [4]: well tolerated, with no serious side effects
- Clinical response in chronic graft-versus-host disease [5]: clinically meaningful responses with little toxicity and reductions in corticosteroid doses
- Tolerability [6]: well tolerated and produced no significant adverse events, including cardiovascular side effects

SMILES: CC1=C(C(=O)Nc2cc3cn[nH]c3cc2F)C(c2ccc(C(F)(F)F)cc2)CC(=O)N1 (stereo not drawn) [IS]
- Stock solution stability, concentration as % of fresh samples [3]: 100.0%
- Stock solution stability [3]: 91.1%
